Results published in ChEMBL document CHEMBL4602647, “Protective effects of 10,11-dihydro-5H-dibenzo[b,f]azepine hydroxamates on vascular cognitive impairment” (Eur J Med Chem, 2020).
Converted amounts (≈) assume the structure as drawn. The source made the active and inactive calls. The rule behind the calls is not given here.

Key:
[1] = Clearance in Sprague-Dawley rat at 2 mg/kg, iv measured up to 24 hrs; type: ADME, organism-based; settings: in vivo
SH-SY5Y = experiment: Neuroprotective activity against OGD-induced hypoxic injury in human SH-SY5Y cells assessed as LDH release at 5 uM incubated under oxygen/glucose deprivation-induced hypoxic medium by LDH assay (reference value: 27.47 +/- 3.23 %); type: functional
Histone deacetylase 4 = Histone deacetylase 4 (Homo sapiens, UniProt P56524); experiment: Inhibition of recombinant N-terminal GST-tagged/C-terminal His-tagged human HDAC4 (627 to 1084 residues) expressed in baculovirus infected insect cells using RHK-K(Ac)-AMC as substrate after 60 mins by fluorimetry analysis
Sequence of Histone deacetylase 4 (P56524 whole entry, the tested form may be a part): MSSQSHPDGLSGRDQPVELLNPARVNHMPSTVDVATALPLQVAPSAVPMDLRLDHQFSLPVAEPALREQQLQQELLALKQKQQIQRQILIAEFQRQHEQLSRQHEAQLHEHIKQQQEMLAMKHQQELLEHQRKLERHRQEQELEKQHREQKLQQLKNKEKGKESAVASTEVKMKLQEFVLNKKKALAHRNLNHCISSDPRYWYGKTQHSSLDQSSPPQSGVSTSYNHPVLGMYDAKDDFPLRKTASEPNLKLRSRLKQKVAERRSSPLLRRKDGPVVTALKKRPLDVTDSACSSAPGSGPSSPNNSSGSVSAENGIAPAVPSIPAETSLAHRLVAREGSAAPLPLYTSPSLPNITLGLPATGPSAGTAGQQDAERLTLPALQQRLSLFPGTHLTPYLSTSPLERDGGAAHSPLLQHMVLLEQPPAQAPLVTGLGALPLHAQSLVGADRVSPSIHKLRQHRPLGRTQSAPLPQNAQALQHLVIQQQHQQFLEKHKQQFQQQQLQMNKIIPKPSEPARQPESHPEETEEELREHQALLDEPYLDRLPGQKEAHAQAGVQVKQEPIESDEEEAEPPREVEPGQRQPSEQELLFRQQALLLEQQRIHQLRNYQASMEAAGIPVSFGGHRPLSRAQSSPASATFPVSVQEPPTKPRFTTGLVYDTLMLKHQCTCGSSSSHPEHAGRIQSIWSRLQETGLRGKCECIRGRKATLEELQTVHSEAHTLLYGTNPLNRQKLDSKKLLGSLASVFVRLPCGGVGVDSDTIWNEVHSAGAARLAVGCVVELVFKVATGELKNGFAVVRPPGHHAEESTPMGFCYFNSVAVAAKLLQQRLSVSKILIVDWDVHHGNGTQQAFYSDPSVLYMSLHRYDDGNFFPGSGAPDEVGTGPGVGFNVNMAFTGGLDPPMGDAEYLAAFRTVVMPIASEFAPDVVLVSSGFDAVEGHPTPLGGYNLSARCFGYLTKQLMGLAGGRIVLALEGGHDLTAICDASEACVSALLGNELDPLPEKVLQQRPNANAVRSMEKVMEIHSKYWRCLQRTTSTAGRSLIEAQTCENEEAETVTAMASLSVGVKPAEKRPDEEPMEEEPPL

Histone deacetylase 2 = Histone deacetylase 2 (Homo sapiens, UniProt Q92769); experiment: Inhibition of recombinant human C-terminal GST-tagged HDAC2 (1 to 488 residues) expressed in baculovirus infected sf21 cells using RHK-K(Ac)-AMC as substrate after 60 mins by fluorimetry assay; settings: read-out: IC50
Sequence of Histone deacetylase 2 (Q92769 whole entry, the tested form may be a part): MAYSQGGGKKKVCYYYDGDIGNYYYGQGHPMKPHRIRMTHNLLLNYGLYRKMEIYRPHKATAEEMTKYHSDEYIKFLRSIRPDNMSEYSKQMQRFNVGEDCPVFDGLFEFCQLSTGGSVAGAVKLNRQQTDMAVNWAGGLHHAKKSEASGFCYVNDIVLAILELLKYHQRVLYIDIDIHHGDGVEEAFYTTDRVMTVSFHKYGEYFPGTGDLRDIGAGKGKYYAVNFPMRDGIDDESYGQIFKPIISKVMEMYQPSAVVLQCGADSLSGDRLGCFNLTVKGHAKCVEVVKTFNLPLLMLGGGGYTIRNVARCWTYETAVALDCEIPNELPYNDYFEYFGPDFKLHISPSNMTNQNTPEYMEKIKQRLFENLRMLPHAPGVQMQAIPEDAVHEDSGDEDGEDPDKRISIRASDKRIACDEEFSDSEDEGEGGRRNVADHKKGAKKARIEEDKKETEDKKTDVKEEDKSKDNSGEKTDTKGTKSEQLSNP

Mus musculus [2] = experiment: Upregulation of acetylated H4K5 protein expression in right side cortex of bilateral common carotid artery occlusion-induced vascular dementia C57BL/6J mouse model at 25 mg/kg, ip measured after 3 months by Western blot analysis; type: functional, organism-based
Mus musculus [3] = experiment: Anti-vascular cognitive impairment activity against bilateral common carotid artery occlusion-induced vascular dementia C57BL/6J mouse model assessed as reduction in cerebral blood flow at 25 mg/kg, ip administered post surgery measured after 3 months relative to sham-operated control; type: functional; set-up: scale not given: the % may be the effect or the level left
[4] = Tmax in Sprague-Dawley rat at 10 mg/kg, po measured up to 24 hrs; type: ADME, organism-based; settings: in vivo
Mus musculus [5] = experiment: Upregulation of acetylated H3K14 protein expression in left side cortex of bilateral common carotid artery occlusion-induced vascular dementia C57BL/6J mouse model at 25 mg/kg, ip measured after 3 months by Western blot analysis; type: functional, organism-based
Histone deacetylase 7 = target: T1, Histone deacetylase 7 (Homo sapiens, UniProt Q8WUI4); experiment: Inhibition of recombinant human N-terminal GST-tagged HDAC7 (518 to 991 residues) expressed in baculovirus infected insect cells using Boc-K(Ac)-AMC as substrate after 90 mins by fluorimetry analysis
T1 sequence (Q8WUI4 whole entry): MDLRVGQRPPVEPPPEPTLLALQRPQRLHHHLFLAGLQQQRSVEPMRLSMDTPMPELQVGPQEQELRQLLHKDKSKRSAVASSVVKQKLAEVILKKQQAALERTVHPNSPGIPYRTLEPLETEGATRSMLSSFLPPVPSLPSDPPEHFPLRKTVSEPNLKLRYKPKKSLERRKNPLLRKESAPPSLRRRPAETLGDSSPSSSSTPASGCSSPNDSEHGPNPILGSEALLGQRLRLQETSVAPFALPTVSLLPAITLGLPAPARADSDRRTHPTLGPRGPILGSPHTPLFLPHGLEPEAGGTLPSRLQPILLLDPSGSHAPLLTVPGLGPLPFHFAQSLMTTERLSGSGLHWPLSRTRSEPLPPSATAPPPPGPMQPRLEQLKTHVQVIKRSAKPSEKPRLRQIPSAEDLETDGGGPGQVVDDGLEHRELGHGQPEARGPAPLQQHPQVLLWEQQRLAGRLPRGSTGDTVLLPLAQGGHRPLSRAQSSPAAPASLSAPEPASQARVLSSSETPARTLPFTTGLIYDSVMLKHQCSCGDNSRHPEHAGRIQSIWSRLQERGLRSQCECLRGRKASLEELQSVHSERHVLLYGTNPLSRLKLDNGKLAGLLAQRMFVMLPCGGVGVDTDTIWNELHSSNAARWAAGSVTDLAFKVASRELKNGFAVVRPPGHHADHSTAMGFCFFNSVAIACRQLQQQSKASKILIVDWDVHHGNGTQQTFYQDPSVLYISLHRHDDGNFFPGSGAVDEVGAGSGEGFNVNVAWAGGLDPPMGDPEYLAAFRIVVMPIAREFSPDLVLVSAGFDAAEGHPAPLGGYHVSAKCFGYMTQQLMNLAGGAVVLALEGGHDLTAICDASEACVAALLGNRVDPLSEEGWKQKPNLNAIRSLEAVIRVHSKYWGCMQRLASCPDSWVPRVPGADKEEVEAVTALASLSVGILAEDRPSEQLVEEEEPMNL

Mus musculus [6] = experiment: Upregulation of acetylated H4K5 protein expression in left side cortex of bilateral common carotid artery occlusion-induced vascular dementia C57BL/6J mouse model at 25 mg/kg, ip measured after 3 months by Western blot analysis; type: functional, organism-based
[7] = Microsomal stability in rat liver microsomes assessed as parent compound remaining measured after 30 mins; type: ADME, Microsome; settings: read-out: Stability
Mus musculus [8] = experiment: Upregulation of acetylated H3K14 protein expression in right side cortex of bilateral common carotid artery occlusion-induced vascular dementia C57BL/6J mouse model at 25 mg/kg, ip measured after 3 months by Western blot analysis; type: functional, organism-based
[9] = AUC (0 to infinity) in Sprague-Dawley rat at 2 mg/kg, iv measured up to 24 hrs; type: ADME, organism-based; set-up: dose 2 mg/kg, time infinity, route intravenous; settings: in vivo
[10] = Aqueous solubility of compound in water incubated at 37 degree C by LC-MS analysis; type: physicochemical
[11] = Volume of distribution at steady state in Sprague-Dawley rat at 2 mg/kg, iv measured up to 24 hrs; type: ADME, organism-based; settings: in vivo, read-out: Vdss
Histone deacetylase 9 = Histone deacetylase 9 (Homo sapiens, UniProt Q9UKV0); experiment: Inhibition of human HDAC9 using fluorogenic Boc-Lys(trifluoroacetyl)-AMC as substrate by fluorescence based analysis
Sequence of Histone deacetylase 9 (Q9UKV0 whole entry, the tested form may be a part): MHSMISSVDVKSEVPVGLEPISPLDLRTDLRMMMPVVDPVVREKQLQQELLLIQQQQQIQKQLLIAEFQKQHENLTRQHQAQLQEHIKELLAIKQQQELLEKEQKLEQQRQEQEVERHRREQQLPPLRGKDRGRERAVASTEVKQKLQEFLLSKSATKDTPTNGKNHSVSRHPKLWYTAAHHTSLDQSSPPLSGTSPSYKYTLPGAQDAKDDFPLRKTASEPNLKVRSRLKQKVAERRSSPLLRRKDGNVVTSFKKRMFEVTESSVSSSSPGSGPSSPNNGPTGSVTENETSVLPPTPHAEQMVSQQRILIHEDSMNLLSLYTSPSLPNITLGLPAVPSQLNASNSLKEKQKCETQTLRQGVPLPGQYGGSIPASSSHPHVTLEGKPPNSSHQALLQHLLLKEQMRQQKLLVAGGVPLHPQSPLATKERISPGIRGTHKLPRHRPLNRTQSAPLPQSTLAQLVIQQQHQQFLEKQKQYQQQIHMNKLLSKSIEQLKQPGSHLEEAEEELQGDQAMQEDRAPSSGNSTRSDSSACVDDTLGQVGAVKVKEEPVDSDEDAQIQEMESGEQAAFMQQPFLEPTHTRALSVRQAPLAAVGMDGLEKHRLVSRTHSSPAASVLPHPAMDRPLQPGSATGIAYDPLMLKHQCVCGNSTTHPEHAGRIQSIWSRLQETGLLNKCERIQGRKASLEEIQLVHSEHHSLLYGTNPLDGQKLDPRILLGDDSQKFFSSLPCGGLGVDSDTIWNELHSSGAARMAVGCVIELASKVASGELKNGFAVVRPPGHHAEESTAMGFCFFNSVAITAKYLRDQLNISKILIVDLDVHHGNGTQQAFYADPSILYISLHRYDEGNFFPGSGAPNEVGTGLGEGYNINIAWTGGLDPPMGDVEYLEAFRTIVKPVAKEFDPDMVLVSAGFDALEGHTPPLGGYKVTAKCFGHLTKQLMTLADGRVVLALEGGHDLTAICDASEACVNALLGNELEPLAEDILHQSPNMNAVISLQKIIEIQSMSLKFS

Histone deacetylase 8 = target: T2, Histone deacetylase 8 (Homo sapiens, UniProt Q9BY41); experiment: Inhibition of recombinant C-terminal His-tagged and N-terminal Streptavidin2-tagged human HDAC8 (1 to 377 residues) expressed in baculovirus infected insect cells using RHK-K(Ac)-AMC as substrate after 60 mins by fluorescence assay
T2 sequence (Q9BY41 whole entry): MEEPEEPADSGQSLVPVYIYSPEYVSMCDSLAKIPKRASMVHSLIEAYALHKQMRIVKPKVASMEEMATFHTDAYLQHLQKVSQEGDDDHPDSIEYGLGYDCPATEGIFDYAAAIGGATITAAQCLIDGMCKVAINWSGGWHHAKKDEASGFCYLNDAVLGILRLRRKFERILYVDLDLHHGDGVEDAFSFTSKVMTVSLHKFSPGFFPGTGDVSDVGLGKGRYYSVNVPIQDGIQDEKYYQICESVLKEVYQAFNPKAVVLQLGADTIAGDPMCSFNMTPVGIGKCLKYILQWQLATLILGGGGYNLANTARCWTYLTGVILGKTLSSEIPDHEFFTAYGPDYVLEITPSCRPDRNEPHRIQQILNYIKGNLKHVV

Histone deacetylase 1 = Histone deacetylase 1 (Homo sapiens, UniProt Q13547); experiment: Inhibition of recombinant full length human C-terminal FLAG/His-tagged HDAC1 (1 to 482 residues) expressed in baculovirus infected Sf21 cells using RHK-K(Ac)-AMC as substrate measured after 60 mins by fluorimetric assay; settings: read-out: IC50
Sequence of Histone deacetylase 1 (Q13547 whole entry, the tested form may be a part): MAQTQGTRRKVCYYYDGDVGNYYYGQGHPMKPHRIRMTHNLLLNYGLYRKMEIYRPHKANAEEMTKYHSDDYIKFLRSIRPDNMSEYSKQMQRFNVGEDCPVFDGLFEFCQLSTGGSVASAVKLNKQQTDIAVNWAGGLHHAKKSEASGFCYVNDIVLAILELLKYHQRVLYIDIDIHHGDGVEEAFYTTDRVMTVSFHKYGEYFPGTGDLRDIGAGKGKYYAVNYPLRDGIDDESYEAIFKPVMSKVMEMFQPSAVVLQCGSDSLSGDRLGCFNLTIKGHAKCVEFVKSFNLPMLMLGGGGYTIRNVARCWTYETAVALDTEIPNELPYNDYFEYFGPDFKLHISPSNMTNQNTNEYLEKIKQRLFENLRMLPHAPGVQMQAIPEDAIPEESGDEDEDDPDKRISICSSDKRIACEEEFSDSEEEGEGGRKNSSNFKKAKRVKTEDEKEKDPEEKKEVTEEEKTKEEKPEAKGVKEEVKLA

[12] = AUC (0 to infinity) in Sprague-Dawley rat at 10 mg/kg, po measured up to 24 hrs; type: ADME, organism-based; set-up: dose 10 mg/kg, time infinity, route oral; settings: in vivo
[13] = Aqueous solubility of compound in ethanol incubated at 37 degree C by LC-MS analysis; type: physicochemical

clearance [1]: 21.3 mL/min/kg | IC50 (Histone deacetylase 4): Not Active | IC50 (Histone deacetylase 2): 6.62 µM | Tmax [4]: 3.5 h | IC50 (Histone deacetylase 7): Not Active | remaining at 0.5 h [7]: 37.4% | AUC(0-inf) [9]: 1850 ng·h/mL | solubility [10]: < 1 µg/mL | Vd [11]: 13.8 L/kg | IC50 (Histone deacetylase 9): Not Active | IC50 (Histone deacetylase 8): 0.533 µM | IC50 (Histone deacetylase 1): 3.82 µM | AUC(0-inf) [12]: 166 ng·h/mL | solubility [13]: 6.58 µg/mL (≈ 14.2 µM)
SMILES: O=C(/C=C/c1ccc(CNCCCN2c3ccccc3CCc3ccc(Cl)cc32)cc1)NO
Activity (SH-SY5Y): 17.73% | Activity (Mus musculus [2]): Active | Activity (Mus musculus [3]): 89 - 92% | Activity (Mus musculus [5]): Active | Activity (Mus musculus [6]): Active | Activity (Mus musculus [8]): Active
